According to patent publication US6376175B1, “Methods of discovering chemicals capable of functioning as gene expression modulators” (OSI Pharmaceuticals, Inc., priority 1989, dated 2002):

Tests used:
Type in all cases: cell-based
[1] = system: mouse mammary tumor virus (MMTV) promoter; conditions: for effect of steroids on luciferase expression in the MMTV reporter cell line M10: FIG. 43; for MMTV fold induction relative to solvent control: Table 2 A) transcriptional activators; for MMTV fold induction relative to solvent control / MMTV fold inhibition relative to solvent control: M10 cells, 6 hours, high-throughput screen; for MMTV fold inhibition relative to solvent control: Table 2 B) transcriptional inhibitors
Description: NIH/3T3 fibroblast cells (ATCC number CRL 1658) were used for transfection of plasmids containing the mouse mammary tumor virus (MMTV) promoter linked to firefly luciferase coding sequences (see below). Cells were propagated in Dulbecco's modified Eagle's medium (DMEM) obtained from Gibco, Grand Island, N.Y. and supplemented with 10% FCS. For high-throughput (HTP) screening, transfected NIH/3T3 clones were transferred to serum free defined medium consisting of Iscove's modified Eagle's medium (IMEM) and Ham's F12 medium (1:1) supplemented with growth factors, hormones and nutrients as described previously (43).
The firefly luciferase gene was removed from the plant expression plasmid pDO432 (33) (FIG. 1) as a 1.9 kb BamHI fragment and cloned into the BamHI site of pSVL (Pharmacia, Piscataway, N.J.), a mammalian expression vector containing the SV40 promoter. The resulting plasmid (pSVLuci; FIG. 2) was digested with XhoI and SalI to produce a 2.4 kb fragment containing the luciferase coding sequences and the SV40 late polyadenylation site. This fragment was inserted into the XhoI site of pMSG (Pharmacia, Piscataway, N.J.), a eukaryotic expression vector containing the MMTV promoter. The resulting MMTV promoter-luciferase fusion plasmid (pMLuci; FIG. 3) was used to transfect NIH/3T3 cells as described below (section E1). Similar constructs can be made using luciferase vectors from Clontech (Palo Alto, Calif.).
pMluci (FIG. 3) and pSV2Neo, an antibiotic resistance plasmid (34), were co-transfected into NIH/3T3 mouse fibroblast cells using the calcium phosphate precipitation method (15) with a commercially available kit (Pharmacia, Piscataway N.J.). Two days later, cells were transferred to media containing 0.4 mg/ml G418 and were grown for an additional 10-14 days. G418-resistant clones were isolated by standard methods. Once sufficient cell numbers were obtained, clones were analyzed based on several criteria: constitutive luciferase production, induction of luciferase expression by dexamethasone (1 μm, Sigma, St. Louis, Mo.), satisfactory attachment to microtiter plates used in the high-throughput screen (see Section G) and acceptable standard deviation in multiple luciferase expression assays (see below for assay protocol). This analysis was carried out using the luciferase assay conditions described in sections F and G. Of the clones which satisfied the above criteria for the high throuphput screen, one clone, M10, was selected for use.
(§1) Cell plating: Dynatech Microlite 96 well plates were custom pretreated for cell attachment by Dynatech Laboratories, Inc. (Chantilly, Va.). Alternatively, the 96 well plates were treated with 50 µl per well of human fibronectin (hFN, 15 µg/ml in PBS, Collaborative Research, Bedford, Mass.) overnight at 37 C. hFN-treated plates were washed with PBS using an Ultrawash 2 Microplate Washer (Dynatech Labs), to remove excess hFN prior to cell plating. M10, 532, and G21 cells maintained in their respective serum media (with 0.2 mg/ml G418) were washed with PBS, harvested by trypsinization, and counted using a hemocytometer and the Trypan Blue exclusion method according to protocols provided by Sigma, St. Louis, Mo. Chemical Company. Cells were then diluted into serum free defined media (with 0.2 mg/ml G418), and 0.2 ml of cell suspension per well was plated onto Dynatech treated plates (532 and G21) or hFN-treated plates (M10) using a Cetus Pro/Pette (Cetus, Emeryville Calif.). Plates were incubated overnight at 37 C in a humidified 5% CO2 atmosphere.
(§2) Addition of Chemicals to Cells: Chemicals from the Oncogene Science file were dissolved in DMSO at concentrations of 3-30 mg/ml. A liquid handling laboratory work station (RSP 5052, Tecan U.S. Chapel Hill, N.C.) was used to dilute the chemicals (three dilutions; 5 fold, 110 fold, and 726 fold). 10 11 of each dilution were added to each of quadruplicate samples of cells contained in the wells of 96-well Dyantech Microlite Plates. […]

human G-CSF promoter = conditions: for GCSF fold induction relative to solvent control: Table 2 A) transcriptional activators; for GCSF fold induction relative to solvent control / GCSF fold inhibition relative to solvent control: G21 cells, 6 hours, high-throughput screen; for GCSF fold inhibition relative to solvent control: Table 2 B) transcriptional inhibitors
Description: A human bladder carcinoma cell line (U5637, ATCC number HTB 9) was used for transfection of plasmids containing the human Granulocyte-Colony Stimulating Factor (G-CSF) promoter (see below) and was maintained in RPMI medium supplemented with 10% FCS. For HTP screening, transfected 5637 clones were transferred to a serum free defined medium identical to that used for the NIH/3T3 clones.
The sequences of OL-1, OL-2 and OL-5 recognize the G-CSF promoter region, OL-4 recognizes the first intron/exon junction and OL-3 recognizes sequences within the second exon (32). One of the clones isolated from the leukocyte library using these oligonucleotide probes contains a 3.5 kb SalI-BamHI fragment of G-CSF genomic sequence consisting of 3.3 kb of promoter sequence and two hundred base pairs of the coding region. This fragment was inserted into the vector pGEM-7-Zf (Promega, Madison, Wis.) which had previously been digested with SalI/BamHI, resulting in the vector pJM710 (FIG. 7). pJM710 was then digested with PstI, and the resulting 1.6 kb fragment containing G-CSF upstream sequences and the first 15 bases of the G-CSF leader sequence was inserted into the PstI site of pGEM5-Luci (FIG. 8) to generate pG-Lucl (FIG. 9). This construct was then used for transfection of 5637 human bladder carcinoma cells as described below in section E3. pGEM5-Luci (FIG. 8) had previously been constructed by inserting the […]/SalI fragment from pSVLuci (FIG. 2) containing the luciferase coding sequence and the SV40 late polyadenylation signal into pGEM 5-Zf (Promega, Madison Wis.) digested with XhoI/SalI.
pG-LUC1 (FIG. 9) and pRSVNeo were co-transfected into 5637 human bladder carcinoma cells as described above. Selection of G418 resistant clones was as described above except for using a concentration of 0.1 mg/ml G418. Analysis of cell clones was performed as above except that a known inducer of G-CSF expression (1-5 µg/ml lipopolysaccharide (LPS), E. coli serotype 055:b5, Difco, Detroit, Mich. or Sigma, St. Louis, Mo.) was used in place of dexamethasone.
as §1, §2

[2] = system: human growth hormone promoter; conditions: for hGH fold induction relative to solvent control: Table 2 A) transcriptional activators; for hGH fold induction relative to solvent control / hGH fold inhibition relative to solvent control: 532 cells, 6 hours, high-throughput screen; for hGH fold inhibition relative to solvent control: Table 2 B) transcriptional inhibitors
Description: A rat pituitary cell line, designated GC, (4, 25) was used for transfection of plasmids containing the human growth hormone promoter (see below) and was maintained in DMEM and Ham's F12 medium (1:1), supplemented with 12.5% FCS. For HTP screening, transfected GC clones were transferred to serum free defined medium consisting of DMEM and Ham's F12 medium (1:1) supplemented with growth factors, hormones and nutrients as described previously (17, 5).
The SalI-XhoI fragment of pSVLuci (FIG. 2) containing the luciferase coding sequences and the SV40 late polyadenylation site was inserted into pUC 8 (Biorad, Richmond, Calif.), which has been linearized by a SmaI/HinCII digestion and ligated to XhoI linkers (New England Biolabs, Beverly, Mass.). The new plasmid thus generated (pUXLuci; FIG. 4) was linearized by XhoI digestion followed by incubation with the Klenow fragment of E. coli DNA polymerase and the four deoxyribonucleotides to fill in the single-stranded ends of the vector. This linear (5.1 KB) form of pUXLuci was then ligated to the filled-in 550 bP HindIII-XbaI fragment of the plasmid phGH:CAT (FIG. 5) (25). Human growth hormone promoter sequences located on the HindIII-XbaI fragment were thus fused to the luciferase coding sequences located on pUXLuci generating the plasmid phGH-Luci (FIG. 6), which was used in transfections of GC cells as described below (Section E2).
phGH-LUCI (FIG. 6) and pRSVNeo, an antibiotic resistance plasmid (14), were co-transfected into GC rat pituitary cells as described above. Selection of G418-resistant cell clones was described above except for using a concentration of 0.2 mg/ml G418. Analysis of the cell clones was performed as above, except that known inducers of hGH expression (10-100 nM rat growth hormone releasing factor (rGRF, Bachem, Torrance, Calif.) and 10 μm forskolin (Sigma, St. Louis, Mo.) were used in place of dexamethasone. One clone, 532, was selected for further use in the high throughput screen.
as §1
Addition of Chemicals to Cells: Chemicals from the Oncogene Science file were dissolved in DMSO at concentrations of 3-30 mg/ml. A liquid handling laboratory work station (RSP 5052, Tecan U.S. Chapel Hill, N.C.) was used to dilute the chemicals (three dilutions; 5 fold, 110 fold, and 726 fold). 10 11 of each dilution were added to each of quadruplicate samples of cells contained in the wells of 96-well Dyantech Microlite Plates. Cell plates were then shaken on a microplate shaker (Dyantech, medium setting, 30 sec.) and incubated for 6 hours at 37 C, 5% CO2.
Bioluminescence Assay: After incubation with OSI-file chemicals, cell plates were washed 3 times with PBS using an Ultrawash 2 Microplate Washer (Dyantech Labs) and 75 µl of Lysis Buffer 2 were added to each well (Lysis Buffer 2 is the same as Lysis buffer 1 exept that the ATP and DTT concentrations were changed to 2.67 mM and 133 mM, respectively). […]

Compound	MMTV fold induction relative to solvent control [1] [fold]	GCSF fold induction relative to solvent control (human G-CSF promoter) [fold]	hGH fold induction relative to solvent control [2] [fold]	GCSF fold inhibition relative to solvent control (human G-CSF promoter) [fold]	also measured
CC(=O)[C@H]1CC[C@H]2[C@@H]3CCC4=CC(=O)CC[C@]4(C)[C@H]3CC[C@]12C [progesterone, reference compound]	–	–	–	–	effect of steroids on luciferase expression in the MMTV reporter cell line M10 [1]: did not
CC1(C(=O)OCC(F)(F)C(F)(F)C(F)(F)C(F)(F)C(F)(F)C(F)F)CCC(C(=O)OCC(F)(F)C(F)(F)C(F)(F)C(F)(F)C(F)(F)C(F)F)C1(C)C (stereo not shown) [Chemical 1592]	1.34	3.20	0.74	–	–
Cc1cc(-c2ccc(S(=O)(=O)[O-])cc2)c2ccc3c(-c4ccc(S(=O)(=O)[O-])cc4)cc(C)nc3c2n1.O.[Na+].[Na+] [Chemical 189]	2.80	1.06	1.47	–	–
CC1(C)C2CCC1(C)C(O)C2 (stereo not shown) [Chemical 1635]	–	–	–	0.71	MMTV fold inhibition relative to solvent control [1]: 0.99 fold; hGH fold inhibition relative to solvent control [2]: 9.09 fold
C[C@@H]1C[C@H]2[C@@H]3CCC4=CC(=O)C=C[C@]4(C)[C@@]3(F)[C@@H](O)C[C@]2(C)[C@@]1(O)C(=O)CO [dexamethasone, reference compound]	–	–	–	–	stimulation of clone M10 by known inducer ([1]; 1 μm dexamethasone): 11.6 fold
O=C(OC(C(=O)O)C(OC(=O)c1ccccc1)C(=O)O)c1ccccc1 (stereo not shown) [Chemical 578]	–	–	–	0.65	MMTV fold inhibition relative to solvent control [1]: 0.91 fold; hGH fold inhibition relative to solvent control [2]: 4.00 fold
CC12CCC(CC1=O)C2(C)C (stereo not shown) [Chemical 1720]	–	–	–	0.65	MMTV fold inhibition relative to solvent control [1]: 0.66 fold; hGH fold inhibition relative to solvent control [2]: 4.76 fold
O=c1[nH]c(=O)n(C2CC(O)C(CO)O2)cc1Br (stereo not shown) [Chemical 543]	0.98	7.17	0.72	–	–
Nc1nc(=O)n(C2CC(O)C(CO)O2)cc1Br (stereo not shown) [Chemical 542]	1.26	6.28	1.08	–	–
CC(=O)[O-].Nc1ccc2nc3c(cc(N)c4ccccc43)[o+]c2c1 [Chemical 1776]	1.36	3.50	0.15	–	–
lipopolysaccharide [reference compound]	–	–	–	–	stimulation of clone G21 by known inducer (human G-CSF promoter; 5 µg/ml lipopolysaccharide): 5.7 fold
rat growth hormone releasing factor: rat growth hormone releasing factor (rGRF, Bachem), known inducer of hGH expression (HADAIFTSSYRRILGQLYARKLLHEIMNRQQGERNQEQRSRFN; Somatoliberin; UniProt P09916 31-73, looked up) [reference compound]	–	–	–	–	stimulation of clone 532 by known inducer ([2]; 100 nM rat growth hormone releasing factor): 2.2 fold
C[C@]12CCC(=O)C=C1CC[C@@H]1[C@@H]2[C@@H](O)C[C@]2(C=O)[C@@H](C(=O)CO)CC[C@@H]12 [aldosterone, reference compound]	–	–	–	–	effect of steroids on luciferase expression in the MMTV reporter cell line M10 [1]: stimulates clone M10
C1CCNCC1 [Chemical 759]	–	–	–	0.64	–
Cc1cc(=O)oc2c(CN(CC(=O)O)CC(=O)O)c(O)ccc12 [Chemical 1712]	–	–	–	0.64	–
